Laboratory results reported in publication PMC2360155, “Novel retinoic acid metabolism blocking agents have potent inhibitory activities on human breast cancer cells and tumour growth” (British Journal of Cancer, 2007).

Experiments:
PARP = assay: Western immunoblotting for cleaved PARP in MCF-7 cells; type: cell-based, human; conditions: 5 μM, 6 days
Experimental: At the end of the treatment, cells were scrapped and collected by washing with ice-cold PBS in a centrifuge tube. Cells were centrifuged at 2500 r.p.m. for 10 min, the pellet was again washed with ice-cold PBS and centrifuged. The cell pellet was then suspended in chilled cell lysis buffer (0.1 M Tris–HCl, 0.5% Triton X-100, protease inhibitor cocktail) and sonicated on ice for 10–15 s. The homogenate was kept on ice for 30 min and then centrifuged at 13 000 r.p.m. for 30 min. The supernatant was used as cell lysate. The cell lysates were stored at −80°C. Protein concentration of the cell lysates was determined using Bio-Rad protein assay reagents.
Protein lysates from MCF-7 and T47D cells were subjected to sodium dodecyl sulphate–polyacrylamide gel electrophoresis (SDS–PAGE) and immunoblotted for different proteins. […] Immunoreactive bands were visualised using the enhanced chemiluminescence detection reagents and analysis system (Amersham Bioscences) according to the manufacturer's instructions and quantified by densitometry using ImageQuant software version 5.
Figure 7 (A) Western immunoblotting of whole-cell lysates of treated MCF-7 and T47D cells for the expression of Bad. […] Numbers below the blot show fold increase in expression of the protein as analysed by ImageQuant densitometry analysis. […]

MCF-7 tumour xenografts = assay: In vivo antitumour study, established MCF-7 tumour xenografts; conditions: for Reduction in mean tumour volume compared with vehicle control / Reduction in mean tumour volume compared with the ATRA group (10 mg kg^−1 day^−1): 6 weeks; for Antitumour effect relative to ATRA / 4-HPR (33.0 μmol kg^−1 day^−1), in words: VN/14-1 16.5 μmol kg^−1 day^−1, VN/66-1 66.0 μmol kg^−1 day^−1
Experimental: All the animal studies were performed according to the guidelines and approval of the Animal Care Committee of the University of Maryland, School of Medicine. Ovariectomised female athymic nude 4–6-week-old mice were used. […] Ovariectomised mice were then inoculated with MCF-7 cells (2 × 10^6 cells in Matrigel per tumour growth site) subcutaneously (s.c.) on the right and left flank. Tumour volumes were measured weekly with calipers. […] Retinoic acid metabolism blocking agents were formulated in 0.3% HPC (hydroxy propyl cellulose). […] Compounds were injected continuously for three days with a drug holiday of one day after every 3 days of treatment. Twice per week, the mice were weighed and tumours were measured using a caliper. Tumour volume was calculated according to the formula 4/3πr1^2r2 (r1<r2). The tumour treatment study was continued for 6 weeks. At the end of 6 weeks, mice were killed and blood plasma, as well as tumours, were collected, weighed and stored at −80°C until analysis.
Female ovariectomised nude mice bearing established MCF-7 tumour xenografts (200–300 mm^3) were grouped so that the mean tumour volume was similar for each group. […] Tumour sizes were measured twice a week after the start of treatment.
Ovariectomised female athymic nude 4–6-week-old mice were used. Oestrogen pellets (1.7 mg per pellet, 90 day release obtained from Innovative Research of America) were implanted in the mice using a trochar to facilitate tumour growth. Mice were then inoculated with MCF-7 cells (2 × 10^6 cells in Matrigel per tumour growth site) s.c. on the right and left flank. Tumours were allowed to grow for about 4–5 weeks till they were of measurable size (200–300 mm^3). The mice were then grouped as control and treatment groups. Twice every week the mice were weighed and tumours were measured using a caliper. Tumour volume was calculated according to the formula 4/3πr1^2r2 (r1<r2). The tumour treatment study was continued for 6 weeks. […] Mice were weighed twice every week during the 6-week antitumour study.

MDA-MB-231 cells = tested on: MDA-MB-231 cells; set-up: method as in Patel et al. (2004); conditions: inhibition of cell proliferation by 50%; ref Patel et al. (2004); read-out: Cellular IC50, MDA-MB-231; cited from earlier work
T47D cells = assay: TUNEL apoptosis assay, T47D; type: cell-based, human; conditions: 5 μM; 6 days; control about 1.5%
Excerpt: The cells were rinsed with PBS and then the stained-labelled apoptotic cells were mounted using DAPI (diamidino-2-phenylindole 2HCl)-glycerol and visualised with a fluorescent microscope using two filters (1) for TUNEL stained cells, and (2) for DAPI stained cells, which represents all the cells (nuclei). Fluorescent microscope model was Nikon, Eclipse E400 and the software was SPOT advanced version 3.5.5 by Diagnostic Instruments Inc. (Sterling Heights, MI, USA).
Figure 6 Graphs showing apoptosis induced in (A) MCF-7 and (B) T47D cells as determined by TUNEL. […] TUNEL-stained apoptotic cells were counted against the DAPI stained cells to obtain percentage apoptosis. The experiments were repeated thrice with similar results. Error bars show s.e.m of three different fields of treated cells, statistically significant ^*P<0.01 and ^**P<0.001 vs control.

CC1=C(/C=C/C(C)=C/C=C/C(C)=C/C(=O)O)C(C)(C)CCC1 [ATRA, all-trans-retinoic acid, reference compound]
Increase in level of cleaved PARP (89 kDa) compared with control (PARP): almost two-fold increases

CC1=C(/C=C/C(C)=C/C=C/C(C)=C/C(=O)O)C(C)(C)CCC1n1ccnc1 (stereo not shown) [VN/14-1]
Increase in level of cleaved PARP (89 kDa) compared with control (PARP): almost two-fold increases | Reduction in mean tumour volume compared with vehicle control (MCF-7 tumour xenografts; 16.5 μmol kg^−1 day^−1 s.c.): 66.5% | Reduction in mean tumour volume compared with the ATRA group (10 mg kg^−1 day^−1) (MCF-7 tumour xenografts; 33.0 μmol kg^−1 day^−1 s.c.): 45% | Reduction in mean tumour volume compared with vehicle control (MCF-7 tumour xenografts; 33.0 μmol kg^−1 day^−1 s.c.): 79.4% | Reduction in mean final tumour weight compared with mice receiving vehicle alone (MCF-7 tumour xenografts; 66.0 μmol kg^−1 day^−1): 92.6% | Reduction in mean tumour volume compared with the ATRA group (10 mg kg^−1 day^−1) (MCF-7 tumour xenografts; 66.0 μmol kg^−1 day^−1 s.c.): 75.61% | Reduction in mean tumour volume compared with vehicle control (MCF-7 tumour xenografts; 66.0 μmol kg^−1 day^−1 s.c.): 92.6% | Antitumour effect relative to ATRA / 4-HPR (33.0 μmol kg^−1 day^−1), in words (MCF-7 tumour xenografts): comparable with the antitumour effect of ATRA or 4-HPR | Tumour regression in the antitumour efficacy studies (MCF-7 tumour xenografts; mouse, in vivo): did not cause any tumour regressions

CC1=C(/C=C/C(C)=C/C=C/C(C)=C/C(=O)Nc2ccc(O)cc2)C(C)(C)CCC1n1ccnc1 (stereo not shown) [VN/66-1]
Antitumour effect relative to ATRA / 4-HPR (33.0 μmol kg^−1 day^−1), in words (MCF-7 tumour xenografts): not better than ATRA | IC50 (MDA-MB-231 cells): 5.62 µM

CC1=C(/C=C/C(C)=C/C=C/C(C)=C\C(=O)Nc2ccc(O)cc2)C(C)(C)CCC1n1ccnc1 (stereo not shown) [VN/69-1]
Induction of apoptosis (TUNEL), T47D (T47D cells): least effective of the RAMBAs in inducing apoptosis
